Data taken from patent US4476120A, “Thiolic derivatives of erythromycin having therapeutic activity, and pharmaceutical compositions containing them” (Sigma Tau Indistrie Farmaceutiche Riunites, p.A, priority 1982, dated 1984).
In brackets after ≈: the same amount, converted by molar mass. Where two headings read alike, the source gives them in different places.

How the values were obtained:
[1] = in vivo; for Hematic levels in the rat: po, 100 mg/kg
N. gonorreae SS 27 = type: cell-based; settings: Brain Heart Infusion, estolate and RV11-RV15 previously hydrolized, unit assumed
Sr. marcescens SS 03 = type: cell-based; settings: Brain Heart Infusion, estolate and RV11-RV15 previously hydrolized, unit assumed
N. meningitidis SS 04 = type: cell-based; settings: Brain Heart Infusion, estolate and RV11-RV15 previously hydrolized, unit assumed
D. pneumoniae SS 23 = experiment: Experimental infection induced by D. pneumoniae SS 23; type: in vivo, Swiss white mice; settings: os; D. pneumoniae SS 23; mg/kg of erythromycin; survival after 7 days; 10080 min
Summary of the method: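 Swiss mice of 20 g infected parenterally with lethal amounts of Staph. aureus SS 07 or D. pneumoniae SS 23. Antibiotics were given at infection and again 6 and 24 h later. ED50 was derived from survival at 7 days.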

C. albicans SS 04 = type: cell-based; settings: Brain Heart Infusion, estolate and RV11-RV15 previously hydrolized, unit assumed
[2] = Hematic levels in the healthy volunteer; type: in vivo, healthy volunteers; settings: oral, 500 mg of erythromycin, average
Text: For the dosing, the microbiological method using a B. subtilis strain was adopted.

## CCC(=O)O[C@H]1[C@H](O[C@@H]2[C@@H](C)[C@H](O[C@H]3C[C@@](C)(OC)[C@@H](O)[C@H](C)O3)[C@@H](C)C(=O)O[C@H](CC)[C@@](C)(O)[C@H](O)[C@@H](C)C(=O)[C@H](C)C[C@@]2(C)O)O[C@H](C)C[C@@H]1N(C)C [RV15, erythromycin monopropionate N-acetylcysteinate]
[1]; 0.3 h
  Hematic levels in the rat: 0.85 µg/mL
[1]; 1 h
  Hematic levels in the rat: 1.90 µg/mL
[1]; 2 h
  Hematic levels in the rat: 2.68 µg/mL
[1]; 3 h
  Hematic levels in the rat: 1.19 µg/mL
[1]; 4 h
  Hematic levels in the rat: 0.55 µg/mL
[1]; 5 h
  Hematic levels in the rat: 0.44 µg/mL
[1]; 6 h
  Hematic levels in the rat: 0.03 µg/mL
[1]; rat
  absorption by oral route (in words): absorbed by oral route in a rate practically analogous to that of erythromycin estolate
N. gonorreae SS 27
  MIC: 0.8 µg/mL (≈ 1.01 µM)
Sr. marcescens SS 03
  MIC: 200 µg/mL (≈ 253 µM)
N. meningitidis SS 04
  MIC: 0.8 µg/mL (≈ 1.01 µM)
D. pneumoniae SS 23
  ED50 (reliability limits): 110.90 (135.28-90.92) mg/kg
C. albicans SS 04
  MIC: 200 µg/mL (≈ 253 µM)
[2]; 0.30 hours, 18 min
  Hematic levels in the healthy volunteer: 1.10 µg/mL
[2]; 1 hour, 60 min
  Hematic levels in the healthy volunteer: 1.58 µg/mL
[2]; 2 hours, 120 min
  Hematic levels in the healthy volunteer: 2.17 µg/mL
[2]; 3 hours, 180 min
  Hematic levels in the healthy volunteer: 1.72 µg/mL
[2]; 4 hours, 240 min
  Hematic levels in the healthy volunteer: 1.38 µg/mL
